Test results as given in patent publication US20230382926A1, “COMPOUNDS AND USES THEREOF” (The University of The West Indies, priority 2022, published 2023).

Legend:
P. aeruginosa = test: Rescue concentration of substituted phenyl azaindole derivatives; type: cell-based; details: Imipenem fixed at 1 μg/mL
Protocol: (§1) The antibiotic adjuvant activity of the SPazaBIMs were evaluated in combination with representative antibiotics (representing 13 antibiotic classes) against the 19 pathogens strains listed in Table 3. To assess the adjuvant properties of the SP-azaBIM molecules, a modified checkerboard minimum inhibitory concentration assay was used. A fixed concentration of the respective antibiotic (susceptible breakpoint concentration) was mixed with a twofold dilution series of the test SP-azaBIM (FIG. 1). This was to determine the concentration of SP-azaBIM needed potentiate the antibiotic at a clinically susceptible breakpoint concentration. Antibiotic susceptible breakpoint concentrations for the respective bacteria were determined using Clinical Laboratory Standards Institute (CLSI) criteria M100 ED31.
(§2) In this study, only those antibiotics to which the bacterial was classed as resistant were included in the adjuvant assays. In this assay we recorded the rescue concentration of the SP-BIM for a respective antibiotic. The rescue concentration was defined as the concentration of the adjuvant that reduces the minimum inhibitory concentration (MIC) of an antibiotic to the susceptibility breakpoint.
(§3) Immediately prior to testing, the respective antibiotic and SP-azaBIM was dissolved in sterile deionised water at 20× the required test concentration. Each microtiter well was then inoculated with 180 μl of bacterial inoculum of 10^6 CFU/ml in ca-MHB, and 10 μl each if the antibiotic and SP-azaBIM was added to the plates. These plates were then incubated at 35° C. for 24 h under aerobic conditions. A similar method was followed for the fastidious pathogens except that they were cultured in ca-MHB with 5% sheep blood and 5% CO2.
Bacterial growth was visually inspected after the incubation period and the rescue concentration of the test SP-azaBIM was determined as the lowest concentration of the compound needed to reduce bacterial growth by 99.99% at the susceptible breakpoint concentration of the antibiotic. […] If the bacteria can tolerate this concentration in vitro, then the bacteria has an intermediate or absolute resistance toward that antibiotic. […]
(§4) Phenyl azaindole compounds are also tested for their adjuvant activities and the method is shown in Example 39.

K. pneumoniae = test: as above; type: cell-based; details: for Rescue concentration, K. pneumoniae Ciprofloxacin (1 μg/mL): Ciprofloxacin fixed at 1 μg/mL; for Rescue concentration, K. pneumoniae Imipenem (1 μg/mL): Imipenem fixed at 1 μg/mL
Protocol: as §1, §2, §3
(§5) Bacterial growth was visually inspected after the incubation period and the rescue concentration of the test SP-azaBIM was determined as the lowest concentration of the compound needed to reduce bacterial growth by 99.99% at the susceptible breakpoint concentration of the antibiotic. For example, CLSI states that Pseudomonas aeruginosa is susceptible to the Imipenem if the MIC is ≤2 μg mL^−1. If the bacteria can tolerate this concentration in vitro, then the bacteria has an intermediate or absolute resistance toward that antibiotic. The goal was to determine the concentration of SP-azaBIM needed to cause P. aeruginosa death at 2 μg mL^−1 of Imipenem therefore restoring susceptibility of the bacteria to toward the antibiotic.
as §4

[1] = test system: Carbapenem resistant Acinetobacter baumannii; test: Broth microdilution minimum inhibitory concentration; type: cell-based; details: compound alone
Protocol: (§6) Antibacterial activity of the synthesized compounds was determined following guidelines established by the Clinical and Laboratory Standards Institute M07-A10 (CLSI 2015), following the broth microdilution method. Briefly, the test articles were dissolved in 100% DMSO, diluted by 2-fold serial titrations in the same vehicle (100% DMSO), for a total of 11 concentrations. A 4 μL aliquot of each dilution was then added to 196 μL of broth medium seeded with the bacterial suspension in wells of a 96 well plate (bacterial count: 2×10^5 to 8×10^5 colony forming units/mL final). The highest test substance concentration was 1028 μg/mL, and the final vehicle concentration was 2 percent. Following incubation, the test plate was visually examined, and each well was scored for growth or complete inhibition of growth. The minimum inhibitory concentration was determined as the lowest concentration were no growth of the bacterial was observed. Each test article was assayed in duplicate.

[2] = test system: Carbapenem resistant Klebsiella pneumoniae; test: as above; type: cell-based; details: compound alone
Protocol: as §6

[3] = test system: Vancomycin resistant Enterococcus faecalis; test: as above; type: cell-based; details: compound alone
Protocol: as §6

[4] = test system: Methicillin resistant Staphylococcus aureus; test: as above; type: cell-based; details: compound alone
Protocol: as §6

[5] = test system: Multidrug resistant Pseudomonas aeruginosa; test: as above; type: cell-based; details: compound alone
Protocol: as §6

MRSA = test: Rescue concentration of substituted phenyl azaindole derivatives; type: cell-based, Staphylococcus aureus; details: Amoxicillin fixed at 2 μg/mL
Protocol: as §1, §2, §3, §5, §4

**Q.** `O=[N+]([O-])c1ccc(C(O)c2c[nH]c3cnc(Cl)cc23)cc1` (stereo not drawn) [4NO2-5Cl-6aza-OH, (5-chloro-1H-pyrrolo[2,3-c]pyridin-3-yl)(4-nitrophenyl)methanol] was tested. Which “Rescue concentration, P. aeruginosa Imipenem (1 μg/mL)” value (P. aeruginosa) did it give?
**A.** 128 µg/mL

**Q.** And the “Rescue concentration, K. pneumoniae Ciprofloxacin (1 μg/mL)” value (K. pneumoniae)?
**A.** <256 µg/mL

**Q.** And the “Rescue concentration, K. pneumoniae Imipenem (1 μg/mL)” value (K. pneumoniae)?
**A.** <256 µg/mL

**Q.** And the MIC [1]?
**A.** < 1020 µg/mL

**Q.** What about the MIC [2] of the same molecule?
**A.** < 1020 µg/mL

**Q.** What about the MIC [3] of the same molecule?
**A.** < 1020 µg/mL

**Q.** And the MIC [4]?
**A.** < 1020 µg/mL

**Q.** And the MIC [5]?
**A.** < 1020 µg/mL

**Q.** What about the “Rescue concentration, MRSA Amoxicillin (2 μg/mL)” value (shortened to “Rescue concentration … (2 μg/mL)”) (MRSA) of the same molecule?
**A.** <256 µg/mL

**Q.** For `COc1ccc(C(O)c2c[nH]c3cnc(Br)cc23)cc1OC` (stereo not drawn) [3,4 Di methoxy 5Br-6aza-OH, (5-bromo-1H-pyrrolo[2,3-c]pyridin-3-yl)(3,4-dimethoxyphenyl)methanol], which “Rescue concentration, P. aeruginosa Imipenem (1 μg/mL)” value (P. aeruginosa) is on record?
**A.** <256 µg/mL

**Q.** What about the “Rescue concentration, K. pneumoniae Ciprofloxacin (1 μg/mL)” value (K. pneumoniae) of the same molecule?
**A.** <256 µg/mL

**Q.** What about the “Rescue concentration, K. pneumoniae Imipenem (1 μg/mL)” value (K. pneumoniae) of the same molecule?
**A.** <256 µg/mL

**Q.** And the MIC [1]?
**A.** < 1020 µg/mL

**Q.** And the MIC [2]?
**A.** < 1020 µg/mL

**Q.** And the MIC [3]?
**A.** < 1020 µg/mL

**Q.** What about the MIC [4] of the same molecule?
**A.** < 1020 µg/mL

**Q.** And the MIC [5]?
**A.** < 1020 µg/mL

**Q.** And the “Rescue concentration … (2 μg/mL)” value (MRSA)?
**A.** 2 µg/mL

**Q.** For `Nc1cccc(C(O)c2c[nH]c3cnccc23)c1` (stereo not drawn) [Compound 3NH2-6aza-OH, (3-aminophenyl)(1H-pyrrolo[2,3-c]pyridin-3-yl)methanol], which “Rescue concentration, P. aeruginosa Imipenem (1 μg/mL)” value (P. aeruginosa) is on record?
**A.** 32 µg/mL

**Q.** And the “Rescue concentration, K. pneumoniae Ciprofloxacin (1 μg/mL)” value (K. pneumoniae)?
**A.** 64 µg/mL

**Q.** And the “Rescue concentration, K. pneumoniae Imipenem (1 μg/mL)” value (K. pneumoniae)?
**A.** 32 µg/mL

**Q.** What about the MIC [1] of the same molecule?
**A.** < 1020 µg/mL

**Q.** And the MIC [2]?
**A.** < 1020 µg/mL

**Q.** And the MIC [3]?
**A.** < 1020 µg/mL

**Q.** What about the MIC [4] of the same molecule?
**A.** < 1020 µg/mL

**Q.** What about the MIC [5] of the same molecule?
**A.** < 1020 µg/mL

**Q.** And the “Rescue concentration … (2 μg/mL)” value (MRSA)?
**A.** 8 µg/mL

**Q.** `O=[N+]([O-])c1cccc(C(O)c2c[nH]c3cnccc23)c1` (stereo not drawn) [Compound 3NO2-6aza-OH, (3-nitrophenyl)(1H-pyrrolo[2,3-c]pyridin-3-yl)methanol] was tested. Which “Rescue concentration, P. aeruginosa Imipenem (1 μg/mL)” value (P. aeruginosa) did it give?
**A.** <256 µg/mL

**Q.** What about the “Rescue concentration, K. pneumoniae Ciprofloxacin (1 μg/mL)” value (K. pneumoniae) of the same molecule?
**A.** 128 µg/mL

**Q.** And the “Rescue concentration, K. pneumoniae Imipenem (1 μg/mL)” value (K. pneumoniae)?
**A.** 256 µg/mL

**Q.** What about the MIC [1] of the same molecule?
**A.** < 1020 µg/mL

**Q.** What about the MIC [2] of the same molecule?
**A.** < 1020 µg/mL

**Q.** And the MIC [3]?
**A.** < 1020 µg/mL

**Q.** What about the MIC [4] of the same molecule?
**A.** < 1020 µg/mL

**Q.** What about the MIC [5] of the same molecule?
**A.** < 1020 µg/mL

**Q.** What about the “Rescue concentration … (2 μg/mL)” value (MRSA) of the same molecule?
**A.** 64 µg/mL
